Tested on: Human Corneal Epithelial Cells
Test: In vitro corneal permeability, cellular uptake and metabolic stability in human corneal epithelial cells
Type: in vitro ADME
Conditions: two hour incubation with Human Corneal Epithelial Cells, 50 μM final concentration
Procedure: Clonetics® human corneal epithelial cells (HCEC) were purchased from Lonza Walkersville, Inc. (Walkersville, Md.) pre-seeded on Costar Transwell™ filters in a 24-well plate. Upon receipt HCEC cells were cultured overnight in a 37° C. incubator ([…], 5% CO2) in media provided by the vendor. Permeability studies were performed within 24 hours of receipt. Dosing solutions 100 μM test article (i.e. ester linked hybrids) were prepared in Lonza's proprietary media by diluting a 50 mM stock solution of the test article in dimethyl sulfoxide. The final percentage of solvent in the incubation was less than 1.0% to prevent inhibition of enzymatic activity or effects on the cell membrane. Transepithelial electrical resistance (TEER) was measured for all wells using a voltohmmeter with STX-2 electrodes (World Precision Instruments Inc., Sarasota, Fla.) after adding 100 μL pre-warmed (37° C.) media to the apical compartment. […] A final TEER value was measured and recorded for all wells.
To evaluate human corneal epithelial cell integrity incubations were conducted using 2 μCi/mL ^3H-mannitol for the same 2 hour incubation period with aliquots taken from the basolateral compartment. ^3H-Mannitol samples were analyzed using liquid scintillation counting. […]

COc1c(N2CCN(C(=O)OCOC(=O)C(C)c3ccc(-c4ccccc4)c(F)c3)C(C)C2)c(F)cc2c(=O)c(C(=O)O)cn(C3CC3)c12 (stereo not shown) [Compound 16, 1-cyclopropyl-6-fluoro-7-{4-[({[2-(2-fluorobiphenyl-4-yl)propanoyl]oxy}methoxy)carbonyl]-3-methylpiperazin-1-yl}-8-methoxy-4-oxo-1,4-dihydroquinoline-3-carboxylic acid]
cellular uptake of hybrid (parent) and hydrolyzed metabolites (FIG. 1): penetrates into human corneal epithelial cells and is enzymatically hydrolyzed to the individual antibiotic and NSAID

Source: patent publication US20140256666A1, “ANTIBIOTIC CONJUGATES WITH NONSTEROIDAL ANTI-INFLAMMATORY DRUGS” (Allergan, Inc., priority 2013, published 2014)
